Source: US20200165194A1, “ADDITIVE COMPOSITION FOR CULTURE MEDIUM, ADDITIVE COMPOUND FOR CULTURE MEDIUM, AND METHOD FOR CULTURE OF CELLS OR TISSUE USING SAME” (NISSAN CHEMICAL CORPORATION, priority 2017, published 2020)
Where two headings read alike, the source gives them in different places.

How the values were obtained:
[1] = system: Bone marrow-derived human mesenchymal stem cells (BM-hMSC); assay: Human mesenchymal stem cell-2: 3D, EZSPHERE and 2D culture, ATP assay (Experimental Example 10); type: cell-based; conditions: for viability at 1 µM / viability at 5 µM / viability at 10 µM / viability at 20 µM: Homo sapiens, Mesenchymal stem cells, 96 h, 4 days, non-addition = 100%
Description: Bone marrow-derived human mesenchymal stem cells (BM-hMSC, manufactured by PromoCell) were precultured by a single layer culture method (2D) using a mesenchymal stem cell proliferation medium (manufactured by PromoCell). In three-dimensional culture method (3D), hMSC was suspended in a medium composition added with deacylated gellan gum, and seeded in a […] flat bottom Ultr-low Attachment surface plate (manufactured by Corning Incorporated, #3474) at 6000 cells/90 μL/well. In the three-dimensional culture method using EZSPHERE (EZSPHERE), hMSC was suspended in a deacylated gellan gum-free medium composition, and seeded in a 96-well EZSPHERE plate (manufactured by AGC TECHNO GLASS CO., LTD., #4860-900) at 2000 cells/90 μL/well. In 2D, hMSC was suspended in a deacylated gellan gum-free medium composition, and seeded in a 96-well flat bottom plate (manufactured by Corning Incorporated, #3585) at 2000 cells/90 μL/well. […] As a control, DMSO was added at a final concentration of 0.1%.

[2] = system: Mouse embryonic fibroblast C3H10T1/2; assay: Fibroblast strain C3H10T1/2, 3D culture, ATP assay (Experimental Example 11); type: cell-based; conditions: for proliferation activity (in words): fibroblast under three-dimensional conditions
Description: Mouse embryonic fibroblast C3H10T1/2 (manufactured by DS PHARMA BIO MEDICAL) was cultured in a BME medium (manufactured by Thermo Fisher Scientific) containing 10 (v/v) % FBS (manufactured by Corning) and the L-glutamine-penicillin-streptomycin stabilizing solution (manufactured by Sigma-Aldrich). The above-mentioned cells in the logarithmic growth phase were washed with PBS, a 0.25 w/v % trypsin-1 mmol/L EDTA (ethylenediaminetetraacetic acid) solution (manufactured by Wako Pure Chemical Industries, Ltd.) was added, and the cells were detached by incubating at 37° C. for 3 min. Each medium was added, the mixture was centrifuged, and the supernatant was removed.
The aforementioned various cells were suspended in respective deacylated gellan gum-containing or not containing media (deacylated gellan gum concentration was 0.015 w/v %), and seeded in a 96 well low attachment U-bottom plate (manufactured by Corning, #4520, deacylated gellan gum-free medium) at a cell concentration of 700-2000 cells/90 μL/well (3D culture). […] The amount of each compound solution to be added was 10 μL/well. As a control, a DMSO solution dissolved in a medium was added (DMSO final concentration 0.1%). […] When compared with the compound no-addition (control), one showing a value of not more than 119% as -, one showing a value of not less than 120% as ◯, and one showing a value of not less than 150% as ⊚ are shown in the eighteenth table. Unperformed test is left blank.

[3] = system: hiPS cell line 253G1; assay: Human pluripotent stem cell (hiPS cell), EZSPHERE plate, ATP assay (Experimental Example 13); type: cell-based; conditions: for relative value (%): hiPS 253G1, EZSPHERE plate, 5 μM, 3 days, RLU of DMSO addition = 100%; for proliferation activity (in words): human pluripotent stem cells under three-dimensional conditions
Description: hiPS cell line 253G1 (purchased from RIKEN) was cultured on a dish coated with vitronectin VTN-N (manufactured by Thermo Fisher Scientific) using mTeSR1 (registered trade mark) medium (manufactured by STEMCELL Technologies). The above-mentioned cells in the proliferation phase were washed with PBS (manufactured by Fujifilm Corporation Wako Pure Chemical Industries, Ltd.), TrypLE Select (registered trade mark) (manufactured by Thermo Fisher Scientific) was added and the mixture was incubated at 37° C. for 3 min to remove the detaching solution. The medium was added and the cells were detached by pipetting. Thereafter, the supernatant was removed by centrifugation.
The aforementioned cells were suspended in a medium containing 10 μM Y-27632 (manufactured by Fujifilm Corporation Wako Pure Chemical Industries, Ltd.) and seeded in a 96-well EZSPHERE plate (manufactured by AGC TECHNO GLASS CO., LTD., #4860-900) at a cell concentration of 10000 cells/200 μL/well. […] The amount of each compound solution to be added was 2 μL/well. As a control, a DMSO solution dissolved in a medium was added (DMSO final concentration 0.05%). The medium was exchanged by half the volume every day, and each compound solution was also added to make the compound concentration constant.

[4] = system: human ovarian cancer cell line SKOV3; assay: Action on SKOV3 cell-2: 3D (deacylated gellan gum) and 2D culture, EGF medium, ATP assay (Experimental Example 3); conditions: for viability at 1 µM / viability at 5 µM / viability at 10 µM / viability at 20 µM: Homo sapiens, SK-OV-3, 96 h, 4 days, compound non-addition = 100%
Description: According to the method of patent document 1 (WO 2014/017513), a composition of McCoy's 5a medium (manufactured by Sigma-Aldrich) containing 0.015% (w/v) deacylated gellan gum (KELCOGEL CG-LA, manufactured by Sansho Co., Ltd.) and 15% (v/v) FBS, 30 ng/mL human EGF (manufactured by PEPROTECH) was prepared using FCeM-series Preparation Kit (manufactured by Wako Pure Chemical Industries, Ltd.). In a single layer culture, a non-addition medium composition not containing deacylated gellan gum was prepared. Then, human ovarian cancer cell line SKOV3 (manufactured by DS PHARMA BIO MEDICAL) was suspended in the above-mentioned medium composition added with deacylated gellan gum, and dispensed into the wells of a 384 well flat bottom Ultr-low Attachment surface microplate (manufactured by Corning Incorporated, #3827) at 1000 cells/36 μL/well (three-dimensional culture (3D)). In a single layer culture (2D), human ovarian cancer cell line SKOV3 was suspended in the above-mentioned medium composition not containing deacylated gellan gum, and dispensed into the wells of a 384 well flat bottom microplate (manufactured by Corning Incorporated, #3712) at 400 cells/36 μL per well. After dispensing, the compound to be used in the present invention dissolved in dimethyl sulfoxide (DMSO) was added by 4 μL each at a final concentration of 0, 1, 5, 10, 20 μM, and continuously cultured for 4 days. Each plate was cultured in a standing state in a CO2 incubator (37° C., 5% CO2) for 4 days. An ATP reagent (40 μL) (CellTiter-Glo (registered trade mark) Luminescent Cell Viability Assay, manufactured by Promega) was added to the culture medium on day 4, and the mixture was stirred by a plateshaker (manufactured by AS ONE Corporation, Micro plate mixer NS-P) at room temperature for 15 min. The luminescence intensity (RLU value) was measured by EnSpire (manufactured by Perkin Elmer) and the luminescence value of the medium alone was subtracted to measure the number of viable cells.

[5] = read-out: relative value of RLU (number of viable cells), BM-hMSC, 2D
[6] = read-out: relative value of RLU (number of viable cells), BM-hMSC, 3D (deacylated gellan gum)
[7] = read-out: relative value of RLU (number of viable cells), BM-hMSC, EZSPHERE plate
[8] = three-dimensional cell culture conditions
[9] = read-out: relative value of RLU (number of viable cells), 2D single layer culture
[10] = read-out: relative value of RLU (number of viable cells), 3D culture (deacylated gellan gum)
[11] = single layer culture (2D) of SKOV3 cells
[12] = three-dimensional culture (3D) of SKOV3 cells
[13] = BM-hMSC, 2D, read-out: relative value of RLU (number of viable cells)
[14] = BM-hMSC, 3D (deacylated gellan gum), read-out: relative value of RLU (number of viable cells)
[15] = BM-hMSC, EZSPHERE plate, read-out: relative value of RLU (number of viable cells)

Row | Structure (SMILES) | proliferation activity (in words) [1, 8] | proliferation activity (in words) [2] | relative value (%) [3] [%] | proliferation activity (in words) [3] | viability at 1 µM [4, 9] [%] | viability at 5 µM [4, 9] [%] | viability at 10 µM [4, 9] [%] | viability at 20 µM [4, 9] [%] | viability at 1 µM [4, 10] [%] | viability at 5 µM [4, 10] [%] | viability at 10 µM [4, 10] [%] | viability at 20 µM [4, 10] [%] | cell proliferation promoting effect (in words) [4, 11] | cell proliferation promoting effect (in words) [4, 12] | other results
1 | CC/C(=N\NC(=O)NCc1cccc(O)c1)c1ccc(O)c(C)c1O [k-1:J-1] | promoted proliferation activity of BM-hMSC | promoted proliferation activity in fibroblast | 227 | promoted proliferation activity in human pluripotent stem cells | 93 | 96 | 97 | 102 | 116 | 170 | 186 | 173 | a favorable cell proliferation promoting effect was not observed | exhibited cell proliferation promoting effect at a wide concentration range | viability at 1 µM [1, 5]: 107%; viability at 5 µM [1, 5]: 121%; viability at 10 µM [1, 5]: 146%; viability at 20 µM [1, 5]: 157%; viability at 1 µM [1, 6]: 132%; viability at 5 µM [1, 6]: 330%; viability at 10 µM [1, 6]: 579%; viability at 20 µM [1, 6]: 773%; viability at 1 µM [1, 7]: 149%; viability at 5 µM [1, 7]: 241%; viability at 10 µM [1, 7]: 321%; viability at 20 µM [1, 7]: 231%; proliferation activity (in words) ([1]; two-dimensional cell culture conditions): promoted proliferation activity of hMSC; number of viable cells (RLU), relative value to control (100%) ([2]; C3H10T1/2, low attachment U-bottom plate, 1 μM, 4 days): ⊙
2 | CC/C(=N\NC(=O)NCc1ccccc1)c1ccc(O)c(C)c1O [k-1:I-1] | promoted proliferation activity of BM-hMSC | promoted proliferation activity in fibroblast |  |  | 99 | 98 | 94 | 92 | 106 | 111 | 123 | 141 | a favorable cell proliferation promoting effect was not observed | exhibited cell proliferation promoting effect at a wide concentration range | viability at 1 µM [1, 13]: 107%; viability at 5 µM [1, 13]: 98%; viability at 10 µM [1, 13]: 104%; viability at 20 µM [1, 13]: 107%; viability at 1 µM [1, 14]: 100%; viability at 5 µM [1, 14]: 123%; viability at 10 µM [1, 14]: 150%; viability at 20 µM [1, 14]: 177%; viability at 1 µM [1, 15]: 101%; viability at 5 µM [1, 15]: 120%; viability at 10 µM [1, 15]: 144%; viability at 20 µM [1, 15]: 163%; viability at 1 µM ([2]; Mus musculus, C3H 10T1/2, 96 h, C3H10T1/2, low attachment U-bottom plate, 1 μM, 4 days, read-out: number of viable cells (RLU), relative value to control (100%)): > 120%; viability at 5 µM ([2]; Mus musculus, C3H 10T1/2, 96 h, C3H10T1/2, low attachment U-bottom plate, 5 μM, 4 days, read-out: number of viable cells (RLU), relative value to control (100%)): > 120%
3 | CCC(=NNC(=O)C(CC)Nc1ccccc1)c1ccc(O)c(C)c1O (centres unmarked) [k-1:H-7] |  |  | 194 | promoted proliferation activity in human pluripotent stem cells |  |  |  |  |  |  |  |  |  |  | 
